ChEMBL document CHEMBL1157117, “Synthesis of [11C]SSR149415 and preliminary imaging studies using positron emission tomography” (Bioorg Med Chem Lett, 2010)

What was measured:
[1] = Metabolic stability in baboon blood at 2.5+/-0.8 mCi, iv after 10 mins; format: ADME, organism-based; settings: papio anubis, read-out: Stability
[2] = Octanol/water partition coefficient, log D of the compound; format: physicochemical
[3] = Fraction unbound in baboon plasma; format: ADME, cell-free; settings: papio anubis
[4] = Biodistribution in baboon lung at 2.5+/-0.8 mCi, iv followed by second dose administered > 2 hrs after initial dose measured per cc after 90 mins; format: ADME, organism-based; settings: papio anubis, in vivo, 1.5 h
[5] = Biodistribution in baboon heart at 2.5+/-0.8 mCi, iv followed by second dose administered > 2 hrs after initial dose measured per cc after 90 mins; format: ADME, organism-based; settings: papio anubis, in vivo, 1.5 h
[6] = Selectivity ratio of vasopressin V1b receptor over vasopressin V1a receptor
[7] = Biodistribution in baboon spleen at 2.5+/-0.8 mCi, iv followed by second dose administered > 2 hrs after initial dose measured per cc after 90 mins; format: ADME, organism-based; settings: papio anubis, in vivo, 1.5 h
[8] = Selectivity ratio of vasopressin V1b receptor over vasopressin V2 receptor
[9] = Selectivity ratio of vasopressin V1b receptor over oxytocin receptor
[10] = Biodistribution in baboon liver at 2.5+/-0.8 mCi, iv followed by second dose administered > 2 hrs after initial dose measured per cc after 90 mins; format: ADME, organism-based; settings: papio anubis, in vivo, 1.5 h

remaining at 10 min [1]	logD [2]	fraction unbound [3]	Drug uptake [4]	Drug uptake [5]	Ratio [6]	Drug uptake [7]	Ratio [8]	Ratio [9]	Drug uptake [10]	Structure (SMILES)
50%	3.22	0.0254	–	–	–	–	–	–	–	COc1ccccc1[C@@]1(N2C[C@H](O)C[C@H]2C(=O)N(C)C)C(=O)N(S(=O)(=O)c2ccc(O[11CH3])cc2OC)c2ccc(Cl)cc21
–	–	–	0.01 %ID	0.01 %ID	100	0.01 %ID	100	100	0.1 %ID	COc1ccc(S(=O)(=O)N2C(=O)[C@@](c3ccccc3OC)(N3C[C@H](O)C[C@H]3C(=O)N(C)C)c3cc(Cl)ccc32)c(OC)c1 [NELIVAPTAN]
